Where two headings read alike, the source gives them in different places.
What was measured:
[1] = molecular target: T1, hFFA3 (Homo sapiens, UniProt O14843); assay: cell-based; settings: for Emax: HEK293, read-out: cAMP Emax; for cAMP pEC50: compound alone, mean of ≥3 independent experiments ± standard error; for PAM pEC50: cAMP assay in the presence of 1 μM propionate; for allosteric effect on propionate response: cAMP assay together with propionate (56: 30 μM compound; 62, 63: 1 μM propionate)
T1 sequence (O14843 1-346): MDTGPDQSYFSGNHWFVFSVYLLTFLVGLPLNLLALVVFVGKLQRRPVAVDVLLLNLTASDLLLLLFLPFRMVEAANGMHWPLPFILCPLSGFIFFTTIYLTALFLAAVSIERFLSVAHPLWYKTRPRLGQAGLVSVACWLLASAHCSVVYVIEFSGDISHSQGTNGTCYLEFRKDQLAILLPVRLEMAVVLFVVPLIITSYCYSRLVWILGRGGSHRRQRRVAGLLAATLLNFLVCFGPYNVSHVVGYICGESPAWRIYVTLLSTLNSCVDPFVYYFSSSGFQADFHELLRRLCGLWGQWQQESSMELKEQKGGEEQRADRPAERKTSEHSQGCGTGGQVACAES
Experimental: (§1) The ligands were initially screened in a human FFA3-dependent [^35S]GTPγS binding assay as this assay reflects receptor-mediated activation of Gi/o proteins and is known to generally correlate well with ligand affinity.[30] Analogues of particular interest were tested further in a cAMP inhibition assay as this is an important downstream effect of Gi-activation. […] It is furthermore performed in whole cells, is more downstream, includes G protein signal amplification, and therefore better reflects a more natural ligand–receptor response.
HEK293 Flp-In T-Rex cells stably transfected with FFA3-eYFP receptors were incubated overnight with doxycycline to induce expression, then harvested, and cryopreserved. On the day of each experiment, cells were thawed and resuspended in stimulation buffer. Assays were carried out using a 384-well plate format with 3000 cells/well using the CisBio cAMP GS dynamic kit as per manufacturer’s protocol. Compounds were tested for the ability to inhibit 0.3 μM forskolin-induced cAMP production after co-incubation for 1 h. Reactions were measured using a PHERAstar FS plate reader (BMGLabtech, Aylesbury, UK).

[2] = molecular target: T1, hFFA3; assay: biochemical; settings: for GTPγS pEC50: hFFA3, mean of ≥3 independent experiments ± standard error; for Emax: read-out: GTPγS Emax
Experimental: as §1
Membranes were isolated from Flp-In T-REx HEK293 cells treated with 100 ng/mL doxycycline to induce receptor expression. Cells were washed with ice-cold phosphate-buffered saline and removed from dishes by scraping before being centrifuged for 5 min at 4 °C, 3000 rpm. Pellets were resuspended in TE buffer (75 mM Tris–HCl, 5 mM EDTA; pH 7.5) with the addition of a protease inhibitor mixture (Roche Applied Science, West Sussex, UK). This was then homogenized with a 5 mL hand-held homogenizer and subsequently centrifuged at 1500 rpm for 5 min at 4 °C, from which the supernatant was collected and further centrifuged at 50 000 rpm for 30 min at 4 °C. The resulting pellet was resuspended in TE buffer, and the protein content was measured using a BCA protein assay kit (Pierce, Fisher Scientific, Loughborough, UK).
Reactions were initiated with the addition of [^35S]GTPγS at 50 nCi per tube; reactions were terminated after 1 h of incubation at 25 °C by rapid filtration through GF/C glass filters using a 24-well Brandel cell harvester (Alpha Biotech, Glasgow, UK). Unbound radioligand was removed from filters by washing three times with ice-cold wash buffer (50 mM Tris–HCl, pH 7.4, and 10 mM MgCl2), and [^35S]GTPγS binding was determined by liquid scintillation spectrometry.

Row | Compound | Emax [1] [%] | cAMP pEC50 ([1]; hFFA3) | GTPγS pEC50 [2] | Emax [2] [%] | PAM pEC50 [1] | further results
1 | CC1=C(C(=O)Nc2ccccc2C)C(c2cccc(C(F)(F)F)c2)C2=C(CCCC2=O)N1 (stereo not shown) [Compound 8, 2-Methyl-5-oxo-N-(o-tolyl)-4-(3-(trifluoromethyl)phenyl)-1,4,5,6,7,8-hexahydroquinoline-3-carboxamide] | 98 | 5.55 ± 0.05 | 4.81 ± 0.13 | 118 | – | –
2 | CC1=C(C(=O)Nc2ccccc2C)C(c2ccc(Br)cc2)C2=C(CCCC2=O)N1 (stereo not shown) [Compound 7, 4-(4-Bromophenyl)-2-methyl-5-oxo-N-(o-tolyl)-1,4,5,6,7,8-hexahydroquinoline-3-carboxamide] | 103 | 5.79 ± 0.03 | 5.43 ± 0.09 | 85 | – | –
3 | CC1=C(C(=O)Nc2c(F)cccc2F)C(CC(C)C)C2=C(CCCC2=O)N1 (stereo not shown) [Compound 21, N-(2,6-Difluorophenyl)-4-isobutyl-2-methyl-5-oxo-1,4,5,6,7,8-hexahydroquinoline-3-carboxamide] | 104 | 4.98 ± 0.08 | 4.67 ± 0.22 | 89 | – | –
4 | CC1=C(C(=O)Nc2ccccc2C)C(c2ccc(C(F)(F)F)cc2)C2=C(CCCC2=O)N1 (stereo not shown) [Compound 9, 2-Methyl-5-oxo-N-(o-tolyl)-4-(4-(trifluoromethyl)phenyl)-1,4,5,6,7,8-hexahydroquinoline-3-carboxamide] | 101 | 5.31 ± 0.06 | 5.12 ± 0.13 | 116 | – | –
5 | CC1=C(C(=O)Nc2cccc(C)c2C)C(CC(C)C)C2=C(CCCC2=O)N1 (stereo not shown) [Compound 18, N-(2,3-Dimethylphenyl)-4-isobutyl-2-methyl-5-oxo-1,4,5,6,7,8-hexahydroquinoline-3-carboxamide] | 97 | 4.98 ± 0.11 | 5.26 ± 0.16 | 88 | – | lower potency in cAMP assay versus GTPγS assay ([1]; cAMP vs GTPγS data): 2 fold
6 | CC1=C(C(=O)Nc2ccccc2C)C(c2ccc(C)cc2)C2=C(CCCC2=O)N1 (stereo not shown) [Compound 10, 2-Methyl-5-oxo-N-(o-tolyl)-4-(p-tolyl)-1,4,5,6,7,8-hexahydroquinoline-3-carboxamide] | 97 | 5.44 ± 0.04 | 4.52 ± 0.11 | 88 | – | –
7 | Cc1ccccc1NC(=O)c1c(C)nc2c(c1-c1ccco1)C(=O)CCC2 [Compound 24, 4-(Furan-2-yl)-2-methyl-5-oxo-N-(o-tolyl)-5,6,7,8-tetrahydroquinoline-3-carboxamide] | – | inactive and nr^c | – | – | – | PAM pEC50 (GTPγS assay) ([2]; GTPγS assay, with propionate): nr^c,d
8 | CC1=C(C(=O)Nc2ccccc2C)C(CC(C)C)C(C(=O)c2ccccc2)=C(C)N1 (stereo not shown) [Compound 25, 5-Benzoyl-4-isobutyl-2,6-dimethyl-N-(o-tolyl)-1,4-dihydropyridine-3-carboxamide] | – | nr^c | – | – | nr^c | EC50 [1]: > 100 µM
9 | CCN(CC)CCOCC1C(C(=O)Nc2cc(Cl)ccc2Cl)=C(C)NC2=C1C(=O)CCC2 (stereo not shown) [Compound 54, N-(2,5-Dichlorophenyl)-4-((2-(diethylamino)ethoxy)methyl)-2-methyl-5-oxo-1,4,5,6,7,8-hexahydroquinoline-3-carboxamide] | – | nr^d | – | – | – | –
10 | CC1=C(C(=O)Nc2ccccc2C)C(c2cccs2)C2=C(CCCC2=O)N1 (stereo not shown) [Compound 4, 2-Methyl-5-oxo-4-(thiophen-2-yl)-N-(o-tolyl)-1,4,5,6,7,8-hexahydroquinoline-3-carboxamide] | 102 | 5.79 ± 0.04 | 5.52 ± 0.18 | 111 | 5.92 ± 0.04 | –
11 | Cc1ccccc1NC(=O)C1=C(c2ccccc2)NC2=C(C(=O)CCC2)C1c1ccco1 (stereo not shown) [Compound 23, 4-(Furan-2-yl)-5-oxo-2-phenyl-N-(o-tolyl)-1,4,5,6,7,8-hexahydroquinoline-3-carboxamide] | – | completely inactive and nr^c | – | – | – | –
12 | CC1=C(C(=O)Nc2ccccc2C)C(c2cccn2C)C2=C(CCCC2=O)N1 (stereo not shown) [Compound 41, 2-Methyl-4-(1-methyl-1H-pyrrol-2-yl)-5-oxo-N-(o-tolyl)-1,4,5,6,7,8-hexahydroquinoline-3-carboxamide] | 97 | 4.45 ± 0.09 | – | – | – | –
13 | CC1=C(C(=O)Nc2ccccc2C)C(c2csc3ccccc23)C2=C(CCCC2=O)N1 (stereo not shown) [Compound 46, 4-(Benzo[b]thiophen-3-yl)-2-methyl-5-oxo-N-(o-tolyl)-1,4,5,6,7,8-hexahydroquinoline-3-carboxamide] | 95 | 5.11 ± 0.04 | – | – | – | –
14 | CC1=C(C(=O)c2ccccc2)C(CC(C)C)C2=C(CCCC2=O)N1 (stereo not shown) [Compound 29, 3-Benzoyl-4-isobutyl-2-methyl-4,6,7,8-tetrahydroquinolin-5(1H)-one] | – | inactive alone and nr^c | – | – | >4 | allosteric effect on propionate response [1]: PAM properties
15 | COC(=O)C1=C(C)NC2=C(C(=O)CCC2)C1CC(C)C (stereo not shown) [Compound 28, Methyl 4-isobutyl-2-methyl-5-oxo-1,4,5,6,7,8-hexahydroquinoline-3-carboxylate] | – | inactive alone and nr^c | – | – | 6.21 ± 0.10 | allosteric effect on propionate response [1]: PAM properties
16 | CC1=C(C(=O)Nc2ccccc2C)C(c2cc(C)cs2)C2=C(CCCC2=O)N1 (stereo not shown) [Compound 43, 2-Methyl-4-(4-methylthiophen-2-yl)-5-oxo-N-(o-tolyl)-1,4,5,6,7,8-hexahydroquinoline-3-carboxamide] | 102 | 5.86 ± 0.04 | – | – | – | –
17 | CCC(C)C1C(C(=O)Nc2ccccc2C)=C(C)NC2=C1C(=O)CCC2 (stereo not shown) [Compound 30, 4-(sec-Butyl)-2-methyl-5-oxo-N-(o-tolyl)-1,4,5,6,7,8-hexahydroquinoline-3-carboxamide] | 110 | 5.00 ± 0.07 | – | – | 6.30 ± 0.04 | –
18 | CCC1C(C(=O)Nc2ccccc2C)=C(C)NC2=C1C(=O)CCC2 (stereo not shown) [Compound 34, 4-Ethyl-2-methyl-5-oxo-N-(o-tolyl)-1,4,5,6,7,8-hexahydroquinoline-3-carboxamide] | 106 | 5.38 ± 0.13 | – | – | 6.45 ± 0.16 | –
19 | CC1=C(C(=O)Nc2ccccc2C)C(CCc2ccccc2)C2=C(CCCC2=O)N1 (stereo not shown) [Compound 38, 2-Methyl-5-oxo-4-phenethyl-N-(o-tolyl)-1,4,5,6,7,8-hexahydroquinoline-3-carboxamide] | 97 | 4.21 ± 0.27 | – | – | 6.23 ± 0.03 | EC50 [1]: > 10 µM
20 | CC1=C(C(=O)Nc2cc(Cl)ccc2Cl)C(CCn2cccn2)C2=C(CCCC2=O)N1 (stereo not shown) [Compound 40, 4-(2-(1H-Pyrazol-1-yl)ethyl)-N-(2,5-dichlorophenyl)-2-methyl-5-oxo-1,4,5,6,7,8-hexahydroquinoline-3-carboxamide] | 96 | 4.95 ± 0.08 | – | – | – | EC50 [1]: > 10 µM
21 | CC1=C(C(=O)Nc2ccccc2C)C(C2CCCCC2)C2=C(CCCC2=O)N1 (stereo not shown) [Compound 31, 4-Cyclohexyl-2-methyl-5-oxo-N-(o-tolyl)-1,4,5,6,7,8-hexahydroquinoline-3-carboxamide] | 91 | 5.26 ± 0.10 | – | – | – | –
22 | CCCCC1C(C(=O)Nc2ccccc2C)=C(C)NC2=C1C(=O)CCC2 (stereo not shown) [Compound 36, 2-Methyl-5-oxo-4-butyl-N-(o-tolyl)-1,4,5,6,7,8-hexahydroquinoline-3-carboxamide] | – | 5.86 ± 0.03 | – | – | 6.58 ± 0.06 | –
23 | CC1=C(C(=O)Nc2ccccc2C)C(C2CCCC2)C2=C(CCCC2=O)N1 (stereo not shown) [Compound 32, 4-Cyclopentyl-2-methyl-5-oxo-N-(o-tolyl)-1,4,5,6,7,8-hexahydroquinoline-3-carboxamide] | 102 | 6.54 ± 0.02 | – | – | – | increase in potency ([1]; cyclopentyl relative to cyclohexyl (31)): 20 fold; EC50 ([1]; read-out: EC50 (cAMP assay), hFFA3): 0.288 µM

— publication PMC7307922 (Journal of Medicinal Chemistry, 2020)
